The Ki is a measure of affinity in units of concentration, obtained from inhibition or displacement.

Where two headings read alike, the source gives them in different places.

The text below walks through data of paper PMC3408433, “Selective Cytotoxicity of Amidinopiperidine Based Compounds Towards Burkitt’s Lymphoma Cells Involves Proteasome Inhibition” (PLoS ONE, 2012).

One series addresses α-chymotrypsin (Bos taurus, UniProt P00766). The series can be described thus: α-Chymotrypsin inhibition assay.
Series [1] relates to Ramos Burkitt’s lymphoma cells. The series can be described thus: Metabolic activity assay (MTS), Ramos. Format: cell-based, human. As to conditions: 24 h; for cytotoxicity group (Figure 3A) / viability at 100 µM: 100 µM; for viability at 100 µM: Homo sapiens, read-out: residual metabolic activity relative to untreated control. The procedure:
When investigating the potency of selected serine protease inhibitors to induce cell death in human B lymphoma cells, we identified a set of compounds cytotoxic for Burkitt’s lymphoma. Using a metabolic activity assay (MTS), we evaluated the proliferation rate of Ramos Burkitt’s lymphoma cells, in the presence of serine protease inhibitors. Cells were treated for 24 h with the compound of interest at concentrations of 100 µM (1–13, 15, 16) or 50 µM (14). After a comparison of metabolic activity relative to that in the untreated control, three groups with distinct modes of action were determined (Figure 3A). […] The second group (compounds 1–3, 5, 7 and 13) caused a moderate decrease (50% to 80%) relative to untreated cells. The last group of compounds (11, 15, 16) severely impaired the metabolic activity, such that it fell to under 6%.
(§1) Cells (1×10^5 cells/mL for Ramos, Daudi, U937 and Jurkat, and 1×10^6 cells/mL for PBMC) were treated with the appropriate amounts of compounds of interest or corresponding vehicle (control cells), then seeded in triplicate in 96 well plates. The metabolic activity was assessed using the CellTiter 96® Aqueous One Solution Cell Proliferation Assay (Promega, Madison/WI, USA), in accordance with the manufacturer’s instructions.

The target of a further series is Trypsin. On the set-up: method as in PMID 15497744, PMID 15544050, PMID 17484277. As to conditions: amidolytic assay, chromogenic substrate; determined previously; cited from earlier work.
Another series has as its target Thrombin. The arrangement: method as in PMID 15497744, PMID 15544050, PMID 17484277. The settings on record: amidolytic assay, chromogenic substrate; determined previously; cited from earlier work.
For another series, the target named is Factor Xa. The arrangement: method as in PMID 15497744, PMID 15544050, PMID 17484277. As to conditions: amidolytic assay, chromogenic substrate; determined previously; cited from earlier work.
The test system of series [2] is peripheral blood mononuclear cells (PBMC). The experiment in a line: Metabolic activity assay (MTS), PBMC. It counts as cell-based, human. As to conditions: 50 µM, 24 h. The procedure: (§2) Compounds 11, and 14–16 were further tested for selective cytotoxicity. The experiments were conducted on freshly isolated primary peripheral blood mononuclear cells (PBMC) and three other haematological cancers: human T cell leukaemia (Jurkat), human histiocytic lymphoma (U937) and human Burkitt’s lymphoma (Daudi). An MTS assay was performed following 24 h of treatment with the compound of interest at 50 µM. […] The inhibition of proliferation in Ramos cells, mediated with compounds 15 and 16, was concentration dependent.
as §1

Series [3] has as its system human Burkitt’s lymphoma (Daudi). The experiment in a line: Metabolic activity assay (MTS), Daudi. It counts as cell-based. The settings on record: 50 µM, 24 h. The procedure: as §2, §1
Series [4] has as its system human T cell leukaemia (Jurkat). The experiment in a line: Metabolic activity assay (MTS), Jurkat. It counts as cell-based. As to conditions: 50 µM, 24 h. On the procedure:
as §2, §1

The subject of series [5] is human histiocytic lymphoma (U937). The experiment in a line: Metabolic activity assay (MTS), U937. The settings on record: U937, 50 µM, 24 h. It counts as cell-based. On the procedure:
as §2, §1

A further series in a line: Solubility remark. It counts as physicochemical. As to conditions: reason for testing at 50 µM.

Experimental for α-chymotrypsin: In short, a 1 nM solution of α-chymotrypsin was mixed with various concentrations of the substrate Suc-Ala-Ala-Pro-Phe-AMC. All the solutions were prepared in 144 mM Tris–HCl, pH 7.8. Substrate hydrolysis was monitored at 30°C on an automated Tecan Safire^2 microplate reader (Tecan, Mannedorf/Zürich, Switzerland). The initial rates of the reactions (ΔF/Δt) were measured immediately after the addition of the substrate (within 200 s) and plotted versus substrate concentration with nonlinear regression to fit a Michaelis-Menten plot. The curve fit and kinetic parameters (Km and v max) were calculated using GraphPad PRISM version 5.0 software (GraphPad Software, Inc., CA, USA). […] The initial velocities of the hydrolysis reactions were measured under the same conditions as described for the determination of Km. 50 µl of α-chymotrypsin solution was added to 50 µl of each inhibitor solution (prepared in 144 mM Tris–HCl, pH 7.8; final concentration 1 nM) and incubated at 30°C for 15 min. The reaction was initiated with the addition of 100 µl of substrate. […] The Ki values were determined as mean values of all measurements.

`O=C(N1CCCCC1)N(CC1CCNCC1)NS(=O)(=O)c1ccc2ccccc2c1` [Compound 13]: the Ki at α-chymotrypsin is 65.9 µM; on Trypsin, greater than 200 µM; on Thrombin, 30 µM. Further, the “cytotoxicity group (Figure 3A)” value in [1] is “moderately cytotoxic (caused a moderate decrease (50% to 80%) relative to untreated cells)”. The viability at 100 µM in series [1] fell in the range of 50 to 80%.

Take `CC1CCN(C(=O)N(Cc2cccc(C(=N)N)c2)NC(=O)c2ccc3ccccc3c2)CC1` [Compound 6]: the Ki at Factor Xa is 5.7 µM; at α-chymotrypsin, 17.1 µM; at Trypsin it was 1.8 µM; on Thrombin, 6.8 µM. Besides, the “cytotoxicity group (Figure 3A)” value in series [1] is “well tolerated (well tolerated by Ramos, since their residual metabolic activity did not fall below 80%)”. Besides, in series [1], the viability at 100 µM was no less than 80%.

In the case of `N/C(=N\O)c1cccc(CN(NS(=O)(=O)c2ccc3ccccc3c2)C(=O)N2CCOCC2)c1` [Compound 4], the Ki on Factor Xa was 60 µM; at α-chymotrypsin it was 41 µM; on Trypsin, 48 µM; at Thrombin, 3.1 µM. Further, the “cytotoxicity group (Figure 3A)” value in [1] is listed as “well tolerated (well tolerated by Ramos, since their residual metabolic activity did not fall below 80%)”. Moreover, the viability at 100 µM in [1] was no less than 80%.

As for `N/C(=N\O)c1cccc(CN(NC(=O)c2ccc3ccccc3c2)C(=O)N2CCCCCC2)c1` [Compound 3], the inhibitory constant (Ki) on Factor Xa was 60 µM; at α-chymotrypsin, 3 µM; at Trypsin it was greater than 100 µM; at Thrombin, 4.8 µM. Also, the “cytotoxicity group (Figure 3A)” value in series [1] is recorded as “moderately cytotoxic (caused a moderate decrease (50% to 80%) relative to untreated cells)”. Also, in series [1], the viability at 100 µM fell in the range of 50 to 80%.

For the compound `O=C(N1CCOCC1)N(CC1CCNCC1)NS(=O)(=O)c1ccc2ccccc2c1` [Compound 12], the Ki is 150 µM on α-chymotrypsin, greater than 200 µM on Trypsin and 53 µM on Thrombin. In series [1], the “cytotoxicity group (Figure 3A)” value is listed as “well tolerated (well tolerated by Ramos, since their residual metabolic activity did not fall below 80%)”. In series [1], the viability at 100 µM was no less than 80%.

Take `CC1CCN(C(=O)N(CC2CCNCC2)NS(=O)(=O)c2ccc3ccccc3c2)CC1` [Compound 11]: the “residual metabolic activity relative to control” value in series [2], in series [3], in series [4], in series [1] (50 µM) and in [5] was “under 40%” in each case. Moreover, the Ki is 38.8 µM at α-chymotrypsin, greater than 200 µM on Trypsin and 19 µM at Thrombin. Further, in [1], the “cytotoxicity group (Figure 3A)” value is listed as “severely cytotoxic (severely impaired the metabolic activity, such that it fell to under 6%)”. Further, the viability at 100 µM in series [1] is less than 6%.

Take `CC1CCN(C(=O)N(Cc2ccc(C#N)cc2)NC(=O)c2ccc3ccccc3c2)CC1` [Compound 5]: the Ki at α-chymotrypsin amounted to 273 µM. In [1], the “cytotoxicity group (Figure 3A)” value is on record as “moderately cytotoxic (caused a moderate decrease (50% to 80%) relative to untreated cells)” and the viability at 100 µM fell in the range of 50 to 80%.

On to `Nc1ccc(CN(NS(=O)(=O)c2ccc3ccccc3c2)C(=O)N2CCOCC2)cc1` [Compound 7], for which the Ki at Factor Xa is 62 µM; on α-chymotrypsin, 4 µM; at Trypsin, 5.6 µM; on Thrombin, 4.5 µM. The “cytotoxicity group (Figure 3A)” value in series [1] is listed as “moderately cytotoxic (caused a moderate decrease (50% to 80%) relative to untreated cells)”. The viability at 100 µM in [1] lay within 50 to 80%.

For the compound `CC(=O)NCc1ccc(CN(NS(=O)(=O)c2ccc3ccccc3c2)C(=O)N2CCCCC2)cc1` [Compound 9], at α-chymotrypsin, the affinity corresponds to a Ki of 40.6 µM. In series [1], the “cytotoxicity group (Figure 3A)” value is listed as “well tolerated (well tolerated by Ramos, since their residual metabolic activity did not fall below 80%)” and the viability at 100 µM was no less than 80%.

Regarding `N/C(=N/O)c1ccc(CN(NC(=O)c2ccc3ccccc3c2)C(=O)N2CCCCCC2)cc1` [Compound 1], the inhibitory constant (Ki) at Factor Xa is 78 µM; on α-chymotrypsin, 33.5 µM; at Trypsin, 660 µM; on Thrombin, 5.2 µM. For the same compound, in series [1], the “cytotoxicity group (Figure 3A)” value is “moderately cytotoxic (caused a moderate decrease (50% to 80%) relative to untreated cells)”. Further, in [1], the viability at 100 µM lay within 50 to 80%.

`CC(=O)Nc1ccc(CN(NS(=O)(=O)c2ccc3ccccc3c2)C(=O)N2CCOCC2)cc1` [Compound 8]: the Ki at α-chymotrypsin amounted to 24.7 µM. Also, in series [1], the “cytotoxicity group (Figure 3A)” value is “well tolerated (well tolerated by Ramos, since their residual metabolic activity did not fall below 80%)” and the viability at 100 µM was no less than 80%.

`CC(=O)N1CCC(CN(NS(=O)(=O)c2ccc3ccccc3c2)C(=O)N2CCCCC2)CC1` [Compound 14]: the “residual metabolic activity relative to control” value in series [2], in series [3], in series [4] and in series [5] was “under 40%” throughout. For the same compound, the Ki at α-chymotrypsin was 47.7 µM. Further, the solubility entry in the series “Solubility remark” is reported as “poor solubility”.

As to `CC1CCN(C(=O)N(Cc2ccc(/C(N)=N\O)cc2)NC(=O)c2ccc3ccccc3c2)CC1` [Compound 2], the inhibition constant Ki is greater than 200 µM on Factor Xa, 259 µM on α-chymotrypsin, 200 µM on Trypsin and greater than 200 µM at Thrombin. In addition, the “cytotoxicity group (Figure 3A)” value in [1] is on record as “moderately cytotoxic (caused a moderate decrease (50% to 80%) relative to untreated cells)”. In series [1], the viability at 100 µM lay in the range of 50 to 80%.

With `CC(C)CC(NS(=O)(=O)c1ccc2ccccc2c1)C(=O)NN(Cc1ccc(C(=N)N)cc1)C(=O)N1CCCCCC1` (centres unmarked) [Compound 10], the inhibitory constant (Ki) on Factor Xa was greater than 100 µM; at α-chymotrypsin (read-out: Ki α-chymotrypsin, substrate Suc-Ala-Ala-Pro-Phe-AMC, pH 7.8, 30°C) it was 8.8 µM; on Trypsin, greater than 100 µM; on Thrombin, 10 µM. In series [1], the “cytotoxicity group (Figure 3A)” value is recorded as “well tolerated (well tolerated by Ramos, since their residual metabolic activity did not fall below 80%)”. Also, in [1], the viability at 100 µM was no less than 80%.
